{"source": "patent US20140357512A1", "about": "“HISTONE DEACETYLASE (HDAC) BIOMARKERS IN MULTIPLE MYELOMA” (priority 2013, published 2014)", "system": "human myeloma cell line MM.1S", "experiment": "SILAC acetylated-lysine peptide profiling, HDAC inhibitor vs DMSO (light/heavy ratio)", "type": "cell-based", "from_the_text": "An embodiment of the invention comprises utilizing the SILAC method in order to quantitate changes in protein expression between two or more populations of cells. The SILAC method is a technique based on mass spectrometry that detects differences in protein abundance among samples using non-radioactive isotopic labeling. The SILAC method is known in the art, and described in detail in Ong et al., “Stable Isotope Labeling by Amino Acids in Cell Culture, SILAC, as a Simple and Accurate Approach to Expression Proteomics”, Molecular & Cellular Proteomics, vol. 1, pp. 376-386 (2002), which is incorporated herein by reference in its entirety.\nBriefly, the SILAC method involves growing two populations of cells in cell culture. The first population of cells is grown in growth media containing normal amino acids (“normal media”). The second population of cells is grown in media lacking a standard essential amino acid (such as lysine), but is then supplemented with a non-radioactive, isotopically labeled form of that essential amino acid (such as lysine labeled with ^13C atoms, rather than normal ^12C atoms), which is called “heavy media”. When the two populations of cells are each growing in the medium, they incorporate the amino acids into all of their proteins. The growth of cells maintained in the heavy media is no different from that in normal media. All peptides containing the heavy amino acids are heavier than their normal counterparts. The cells from each of the two populations of cells are lysed. The lysates from each of the two cell populations are then combined. The combined cell lysates are then analyzed by mass spectrometry. Pairs of chemically identical peptides of different stable isotope composition can be differentiated in a mass spectrometer due to their difference in mass. The ratio of peak intensities in the mass spectrum for such peptide pairs reflects the abundance ratio for the two proteins.\nThis example describes SILAC studies that were performed to compare the effects of three different HDAC inhibitors (Compound A, Compound B, and tubastatin A) to a control on a human multiple myeloma cell line. The HDAC inhibitors were also compared amongst themselves to determine differences in their effects.\nA human myeloma cell line MM.1S was grown using either ^12C (light) or ^13C (heavy) lysine containing culture medium. The “heavy” cells were treated with DMSO as the control, and the “light” cells were treated with a single HDAC inhibitor at 37° C. for 6 hours. The heavy and light cells were lysed, and the lysates were mixed in 1:1 ratio and digested with the protease trypsin. The acetylated lysine containing peptides (due to the action of the HDAC inhibitor) in the digested peptide pool were captured by a non-specific anti-acetylated lysine antibody cocktail (the antibodies identify both light and heavy acetylated peptides), and subjected to mass spectrometry analysis in order to identify thousands of individual peptides.\nThousands of peptides were identified in pairs (^12C and ^13C) due to their known mass differences. The amino acid sequence and quantitative ratio (Light/Heavy) of a given peptide in two differentially treated cell lysates were then determined and annotated with their possible protein (gene) sources.\nAs stated above, three HDAC inhibitors (Compound A, Compound B, and Tubastatin A) were used. Thus, the SILAC method was performed three times, with a different HDAC inhibitor compared to a control each time. Accordingly, there are three pairs of quantitative data in the table below, i.e., Compound A:DMSO, Compound B:DMSO, and Tubastatin A:DMSO. A cut-off of 1.30 fold of change (increase or decrease) was then used to determine “changed” or “+” in the table, and any peptides with a fold of change less than 1.3 fold were determined to be “unchanged” or “0” in the table. Those peptides that were not identified were marked as “NA” in the table. […]", "data": [{"smiles": "CN1CCc2c(c3ccccc3n2Cc2ccc(C(=O)NO)cc2)C1", "note": "[Tub A]", "values": [{"measurement": "light to heavy ratio (L/H ratio), log 2 scale, acetylated peptide VGDK(ac)VLLPEYGGTK (SEQ ID NO: 773)", "setting": "10 kDa heat shock protein mitochondrial [70], gene HSPE1, drug:DMSO", "value": 0.00}, {"measurement": "light to heavy ratio (L/H ratio) of acetylated peptide IQEVLK(ac)HAR (SEQ ID NO: 264)", "setting": "39S ribosomal protein L20 mitochondrial [26], MRPL20, drug:DMSO", "value": 0.38, "unit": "log 2"}, {"measurement": "light to heavy ratio (L/H ratio) of acetylated peptide FK(ac)LITEDVQGK (SEQ ID NO: 287)", "setting": "40S ribosomal protein S3a [85], SNORD73A, RPS3A, drug:DMSO", "value": "−0.66", "unit": "log 2"}, {"measurement": "light to heavy ratio (L/H ratio) of acetylated peptide KDVHMPK(ac)HPELADK (SEQ ID NO: 353)", "setting": "40S ribosomal protein S10 [31], RPS10, drug:DMSO", "value": 0.00, "unit": "log 2"}, {"measurement": "light to heavy ratio (L/H ratio) of acetylated peptide NK(ac)IAGYVTHLMK (SEQ ID NO: 559)", "setting": "40S ribosomal protein S17 [49], gene RPS17, RPS17L, inhibitor:DMSO", "value": 0.00, "unit": "log 2"}, {"measurement": "light to heavy ratio (L/H ratio) of acetylated peptide GIVLEK(ac)VGVEAK (SEQ ID NO: 320)", "setting": "40S ribosomal protein S23 [54], RPS23, drug:DMSO", "value": "−0.55", "unit": "log 2"}, {"measurement": "light to heavy ratio (L/H ratio), log 2 scale, acetylated peptide ALEK(ac)IDLK (SEQ ID NO: 813)", "setting": "60S ribosomal protein L3 [362], gene SNORD43, RPL3, drug:DMSO", "value": 0.00}, {"measurement": "light to heavy ratio (L/H ratio) of acetylated peptide IPK(ac)HLTDAYFK (SEQ ID NO: 259)", "setting": "60S ribosomal protein L6 [211], RPL6, drug:DMSO", "value": "−0.63", "unit": "log 2"}, {"measurement": "light to heavy ratio (L/H ratio) of acetylated peptide GPLDK(ac)WR (SEQ ID NO: 622)", "setting": "60S ribosomal protein L10-like [208], gene RPL10L, inhibitor:DMSO", "value": 0.00, "unit": "log 2"}, {"measurement": "light to heavy ratio (L/H ratio), log 2 scale, acetylated peptide YMVK(ac)SCGK (SEQ ID NO: 811)", "setting": "60S ribosomal protein L10 [78], gene SNORA70, RPL10, drug:DMSO", "value": 0.00}, {"measurement": "light to heavy ratio (L/H ratio) of acetylated peptide VITEEEK(ac)NFK (SEQ ID NO: 522)", "setting": "60S ribosomal protein L13 [174], gene RPL13, inhibitor:DMSO", "value": 0.00, "unit": "log 2"}, {"measurement": "light to heavy ratio (L/H ratio) of acetylated peptide LAAIVAK(ac)QVLLGR (SEQ ID NO: 505)", "setting": "60S ribosomal protein L13a [25], gene SNORD32A, RPL13A, SNORD33, SNORD34, inhibitor:DMSO", "value": 0.00, "unit": "log 2"}, {"measurement": "light to heavy ratio (L/H ratio) of acetylated peptide K(ac)FAYLGR (SEQ ID NO: 614)", "setting": "60S ribosomal protein L13a [134], gene SNORD32A, RPL13A, SNORD33, SNORD34, inhibitor:DMSO", "value": 0.00, "unit": "log 2"}, {"measurement": "light to heavy ratio (L/H ratio), log 2 scale, acetylated peptide LAHEVGWK(ac)[…] (SEQ ID NO: 812)", "setting": "60S ribosomal protein L13a [148], gene SNORD32A, RPL13A, SNORD33, SNORD34, drug:DMSO", "value": 0.00}, {"measurement": "light to heavy ratio (L/H ratio) of acetylated peptide RNPDTQWITK(ac)PVHK (SEQ ID NO: 581)", "setting": "60S ribosomal protein L15 [153], gene RPL15, inhibitor:DMSO", "value": 0.00, "unit": "log 2"}, {"measurement": "light to heavy ratio (L/H ratio), log 2 scale, acetylated peptide YSVDIPLDK(ac)TVVNK (SEQ ID NO: 807)", "setting": "60S ribosomal protein L27 [93], gene RPL27, drug:DMSO", "value": 0.00}, {"measurement": "light to heavy ratio (L/H ratio), log 2 scale, acetylated peptide TVVNK(ac)DVFR (SEQ ID NO: 766)", "setting": "60S ribosomal protein L27 [98], gene RPL27, drug:DMSO", "value": 0.00}, {"measurement": "light to heavy ratio (L/H ratio) of acetylated peptide NCSSFLIK(ac)R (SEQ ID NO: 558)", "setting": "60S ribosomal protein L28 [19], gene RPL28, inhibitor:DMSO", "value": 0.00, "unit": "log 2"}, {"measurement": "light to heavy ratio (L/H ratio) of acetylated peptide LWSK(ac)AIFAGYK (SEQ ID NO: 538)", "setting": "60S ribosomal protein L35a [8], gene RPL35A, inhibitor:DMSO", "value": 0.00, "unit": "log 2"}, {"measurement": "light to heavy ratio (L/H ratio) of acetylated peptide AIFAGYK(ac)R (SEQ ID NO: 300)", "setting": "60S ribosomal protein L35a [15], RPL35A, drug:DMSO", "value": 0.44, "unit": "log 2"}, {"measurement": "light to heavy ratio (L/H ratio) of acetylated peptide VMEHFIK(ac)LYK (SEQ ID NO: 276)", "setting": "78 kDa glucose-regulated protein [268], HSPA5, drug:DMSO", "value": "−0.66", "unit": "log 2"}, {"measurement": "light to heavy ratio (L/H ratio) of acetylated peptide AK(ac)FEELNMDLFR (SEQ ID NO: 266)", "setting": "78 kDa glucose-regulated protein [326], HSPA5, drug:DMSO", "value": "−0.52", "unit": "log 2"}, {"measurement": "L/H ratio of acetylated peptide", "setting": "(ac)AVPPTYADLGK(ac)SAR (SEQ ID NO: 464), Voltage-dependent anion-selective channel protein 1 [12], VDAC1", "value": 0.00, "unit": "log 2"}, {"measurement": "light to heavy ratio (L/H ratio) of acetylated peptide, log 2 scale", "setting": "(ac)SIGVPIK(ac)VLHEAEGHIVTCETNTGEVYR (SEQ ID NO: 224), Small nuclear ribonucleoprotein Sm D3 [8], SNRPD3", "value": 0.40}, {"measurement": "L/H ratio of acetylated peptide", "setting": "(ac)SSNECFK(ac)CGR (SEQ ID NO: 379), Isoform 1 of Cellular nucleic acid-binding protein [8], CNBP", "value": 0.00, "unit": "log 2"}, {"measurement": "light to heavy ratio (L/H ratio) of acetylated peptide, log 2 scale", "setting": "(ac)SVFGK(ac)LFGAGGGK (SEQ ID NO: 143), Charged multivesicular body protein 4b [6], CHMP4B", "value": "−0.39"}, {"measurement": "L/H ratio of acetylated peptide IHNFGLIQEK(ac)LAR (SEQ ID NO: 19)", "setting": "ACADVL [428], log 2 scale, drug vs DMSO", "value": "−0.60"}, {"measurement": "L/H ratio of acetylated peptide NLQK(ac)EVIHR (SEQ ID NO: 125)", "setting": "ACOX1 [504], log 2 scale, drug vs DMSO", "value": 0.54}, {"measurement": "L/H ratio of acetylated peptide LDHLAEK(ac)FR (SEQ ID NO: 20)", "setting": "ACTN1 [398], log 2 scale, drug vs DMSO", "value": "−0.51"}, {"measurement": "L/H ratio of acetylated peptide LVDQSGPPHEPK(ac)FVYQAK (SEQ ID NO: 126)", "setting": "ADAR [757], log 2 scale, drug vs DMSO", "value": "−0.41"}, {"measurement": "light to heavy ratio (L/H ratio) of acetylated peptide, log 2 scale", "setting": "ADINTK(ac)WAATR (SEQ ID NO: 202), Ribosomal protein L14 variant [85], RPL14", "value": "−0.50"}, {"measurement": "light to heavy ratio (L/H ratio) of acetylated peptide, log 2 scale", "setting": "ADK(ac)DYHFK (SEQ ID NO: 191), Isoform 2 of Nucleophosmin [27], NPM1", "value": "−0.60"}, {"measurement": "light to heavy ratio (L/H ratio) of acetylated peptide IFGSNK(ac)WTTEQQQR (SEQ ID NO: 306)", "setting": "ADP-ribosylation factor-like protein 6-interacting protein 1 [96], ARL6IP1, drug:DMSO", "value": 0.45, "unit": "log 2"}, {"measurement": "light to heavy ratio (L/H ratio) of acetylated peptide TTLLYK(ac)LK (SEQ ID NO: 624)", "setting": "ADP-ribosylation factor-like protein 11 [31], gene ARL11, inhibitor:DMSO", "value": 0.00, "unit": "log 2"}, {"measurement": "light to heavy ratio (L/H ratio) of acetylated peptide IFK(ac)SDGLR (SEQ ID NO: 280)", "setting": "ADP/ATP translocase 1 [166], SLC25A4, drug:DMSO", "value": 0.48, "unit": "log 2"}, {"measurement": "light to heavy ratio (L/H ratio) of acetylated peptide ITK(ac)SDGIR (SEQ ID NO: 587)", "setting": "ADP/ATP translocase 3 [166], gene SLC25A6, inhibitor:DMSO", "value": 0.00, "unit": "log 2"}, {"measurement": "L/H ratio of acetylated peptide HLSDSINQK(ac)HFEQAIER", "setting": "AFG3L2 [543], log 2 scale, drug vs DMSO", "value": "−0.39"}, {"measurement": "light to heavy ratio (L/H ratio) of acetylated peptide, log 2 scale", "setting": "AFYK(ac)SFSK (SEQ ID NO: 170), Endoplasmin [360], HSP90B1", "value": "−1.00"}, {"measurement": "light to heavy ratio (L/H ratio) of acetylated peptide, log 2 scale", "setting": "AGVNTVTTLVENK(ac)K (SEQ ID NO: 206), 60S ribosomal protein L7a [150], RPL7A, SNORD24", "value": "−0.42"}, {"measurement": "light to heavy ratio (L/H ratio) of acetylated peptide, log 2 scale", "setting": "AGYNVK(ac)QLFR (SEQ ID NO: 199), Isoform 1 of Ras-related protein Rab-6A [164], RAB6A", "value": 0.45}, {"measurement": "light to heavy ratio (L/H ratio) of acetylated peptide, log 2 scale", "setting": "AHPVFYQGTYSQALNDAK(ac)R (SEQ ID NO: 153), FAS-associated factor 2 [167], FAF2", "value": "−0.48"}, {"measurement": "L/H ratio of acetylated peptide LK(ac)DISTLEPLKK (SEQ ID NO: 21)", "setting": "ANP32B [101], log 2 scale, drug vs DMSO", "value": "−0.56"}, {"measurement": "L/H ratio of acetylated peptide QRQEVCQSYK(ac)SLYGK (SEQ ID NO: 22)", "setting": "ANXA6 [63], log 2 scale, drug vs DMSO", "value": 0.68}, {"measurement": "L/H ratio of acetylated peptide LGTDESK(ac)FNAVLCSR (SEQ ID NO: 7)", "setting": "ANXA11 [478], log 2 scale, drug vs DMSO", "value": "−0.44"}]}]}
